11 compounds from patent US20210244686A1, “Novel Systems And Methods For The Therapeutic Use of Cannabinoids or Cannabinoid Analogs to Increase The Lipid Order of Cholesterol Containing Cell Membranes” (The Regents of the University of Colorado a body corporate, priority 2018, published 2021) can be followed below.

The subject of data set [1] is endoplasmic reticulum in SKNBE2 and HaCaT keratinocyte cells. As to the kind of experiment: Confocal microscopy of rhodamine-glibenclamide staining, ER structure. The class given is cell-based, human. The following applies: for alteration of the structure of the endoplasmic reticulum: SKNBE2 and HaCaT keratinocyte cells. How it is done: FIG. 16. Rhodamine-glibenclamide staining in live cells is visualized by confocal microscopy in live cells. ER structure is perturbed after 2 hours of exposure to CBD and o-1602, but not for o-1821 exposure.

In data set [2] the test system is SKNBE2 neuroblastoma cells. As to the kind of experiment: Flow cytometric analysis of rhodamine-glibenclamide staining in live cells. Format: cell-based, human. The following applies: live cells, flow cytometry. In general terms: Flow cytometry measures light scatter and fluorescence of single cells or particles in a stream.
Another data set concerns SK-N-BE(2) cells. As to the kind of experiment: Live cell microscopy apoptosis assay (caspase 3/7 dye). The following applies: for apoptotic response to combinatorial 25-hydroxy cholesterol/CBD treatment: 25-hydroxy cholesterol 15 μg/ml, CBD 20 μM, U18666A 10 μM or VULM 1457 5 μM, 24 hours. The method, then:
To accurately measure cellular apoptosis over time, the present inventors performed live cell microscopy experiments with cells loaded with both DNA and caspase 3/7 dyes, which enables continuous and precise quantification of apoptosis at the single cell level.
Cell viability for SK-N-BE(2) cells was conducted using a fluorometric cell viability assay using Resazurin (PromoKine) according to the manufacturer's instructions. […] Dyes were added at the time of seeding, 18-24 hours prior to performing experiments.
Experiments were performed using an ImageXpress MicroXL microscope and a 10× objective, where images were acquired for each well at the indicated time-points using DAPI and FITC filter sets. […] Percent apoptotic cells was calculated from the sum of apoptotic cell pixels divided by the sum of all cell pixels for each field of view.

A further data set has as its system HEK293T cells. The data set is described as above. The following applies: for apoptotic response to combinatorial 25-hydroxy cholesterol/CBD treatment: 25-hydroxy cholesterol 15 μg/ml, CBD 20 μM, U18666A 10 μM or VULM 1457 5 μM, 24 hours. The class given is cell-based. How it is done: In order to gain further insight into the sensitivity of CBD treated cells to 25-hydroxy cholesterol, the present inventors repeated the apoptosis assay in SK-N-BE(2) and HEK293T cells with combinatorial 25-hydroxy cholesterol/CBD stimulation using sublethal doses of 25-hydroxy cholesterol (15 μg/ml) and CBD (20 μM) in the presence or absence of either the chemical inhibitor of cholesterol transport (U18666A, 10 μM) or cholesterol storage (VULM 1457, 5 μM).
FRAP experiments reveal that DHA and CBD have opposing effects on the lateral diffusion of fluorescently labelled cholesterol in synthetic membranes. Although this implies that CBD increases lipid order and that DHA decreases lipid order, it remains unclear how relevant these biophysical effects of CBD and DHA are to cellular physiology. As a result, the present inventors sought to determine whether CBD and DHA have opposing effects on cells. To this end, the present inventors repeated the live cell apoptosis assays in cells exposed to increasing doses of DHA to determine how DHA affects cell death.

The nature of data set [3]: FRAP of NBD-cholesterol in synthetic membrane monolayers. The following applies: DHA 20 μM plus CBD. From the text:
CBD's ability to affect cholesterol orientation in both synthetic and cell derived ER membranes implies that CBD may contribute to increased lipid order. The ability of cholesterol oxidase assays to reveal alterations in lipid order has been previously reported in studies noting that cholesterol oxidase can preferentially target caveolar domains, which are ordered lipid domains. Another hallmark of lipid order is a decrease in lateral diffusion of lipids. As a result, the present inventors aimed to measure CBD's ability to perturb the lateral diffusion of fluorescently labelled cholesterol (NBD-cholesterol) in synthetic membranes. The present inventors deposited PC SUVs containing 20% moles of cholesterol and 2% moles NBD-cholesterol on glass-bottom multi-well imaging plates, followed by ultra-sonification to construct fluorescently labelled membrane monolayers. Using these monolayers and confocal microscopy, the inventor's performed fluorescence recovery after photobleaching (FRAP) experiments to measure the kinetics of recovery of fluorescent cholesterol. […] This effect of CBD on lateral diffusion could be rescued with simultaneous treatment with the lipid disordering agent DHA (FIGS. 6G, I). There are two proposed models for how DHA affects cholesterol in membranes. […]

Setting [4] is: DHA 75 μM with MBCD 300 μM or CBD 6.25 μM.

For the compound `C=C(C)[C@@H]1CCC(C)=C[C@H]1c1c(C)cc(O)cc1O` [o-1602, 5-methyl-4-[(1R,6R)-3-methyl-6-(1-methylethenyl)-2-cyclohexen-1-yl]-1,3-benzenediol], the “alteration of the structure of the endoplasmic reticulum” value (“alteration” for short) in data set [1] is “observed”. Further, the ER structure entry in data set [1] (after 2 hours of exposure, live cells) is “perturbed”. In data set [2], the rhodamine-glibenclamide fluorescence result was “Enhanced fluorescence”.
Turning to `CCCCCCC(C)(C)c1cc(OC)c(C2C=C(CO)C3CC2C3(C)C)c(OC)c1` (stereo not drawn) [HU-308, 4-[4-(1,1-dimethylheptyl)-2,6-dimethoxyphenyl]-6,6-dimethyl-bicyclo[3.1.1]hept-2-ene-2-methanol], the rhodamine-glibenclamide fluorescence result in data set [2] was “Enhanced fluorescence”.
Regarding `CCN(CC)CCO[C@H]1CC[C@@]2(C)C(=CC[C@@H]3[C@@H]2CC[C@]2(C)C(=O)CC[C@@H]32)C1` [U18666A], the “apoptotic response to combinatorial 25-hydroxy cholesterol/CBD treatment” value with SK-N-BE(2) cells and with HEK293T cells was “restore the apoptotic response” each time.
With methyl beta cyclodextrin [MBCD], the “effect on DHA induced apoptosis” value with SK-N-BE(2) cells (setting [4]) is reported as “completely cancel apoptosis”; in the data set on HEK293T cells (setting [4]), “delay apoptosis”.
For the compound `C=C(C)[C@@H]1CCC(C)=C[C@H]1c1c(O)cc(O)cc1CCCCC` [abnormal CBD, 4-[(1R,6R)-3-Methyl-6-(1-methylethenyl)-2-cyclohexen-1-yl]-5-pentyl-1,3-benzenediol], the “alteration” value in data set [1] is “not”. Further, the rhodamine-glibenclamide fluorescence result in data set [2] is listed as “Enhanced fluorescence”.
Take `O=C1[C@H](CC[C@H](O)c2ccc(F)cc2)[C@@H](c2ccc(O)cc2)N1c1ccc(F)cc1` [Ezetimibe]: the rhodamine-glibenclamide fluorescence result in data set [2] was “Enhanced fluorescence”.
`CC(C)c1c(C(=O)Nc2ccccc2)c(-c2ccccc2)c(-c2ccc(F)cc2)n1CC[C@@H](O)C[C@@H](O)CC(=O)O` [Atorvastatin]: in data set [2], the rhodamine-glibenclamide fluorescence entry is listed as “Enhanced fluorescence”.
`CC(C)c1cccc(C(C)C)c1NC(=O)Nc1ccc(Sc2ccc([N+](=O)[O-])cc2)cc1` [VULM 1457]: the “apoptotic response to combinatorial 25-hydroxy cholesterol/CBD treatment” value with SK-N-BE(2) cells and in the data set on HEK293T cells was “restore the apoptotic response” in each case.
Turning to `C[C@H](CO)NC(=O)CCC/C=C\C/C=C\C/C=C\C/C=C\C(C)(C)CCCCC#N` [o-1821], the “alteration” value in data set [1] is listed as “not”. For the same compound, in data set [2], the rhodamine-glibenclamide fluorescence result is on record as “Enhanced fluorescence”.
On the same counts, the results for `C=C(C)[C@@H]1CCC(C)=C[C@H]1c1c(O)cc(CCCCC)c(C(=O)O)c1O` [Cannabidiolic Acid, cannabidiolic acid] are “not” and “Enhanced fluorescence”.
Take `CC/C=C\C/C=C\C/C=C\C/C=C\C/C=C\C/C=C\CCC(=O)O` [DHA]: the apoptosis result in the data set with SK-N-BE(2) cells (relatively low doses of DHA) and in the data set with HEK293T cells (relatively low doses of DHA) was “induce apoptosis” in each case. Further, in data set [3], the “effect of CBD on lateral diffusion with simultaneous DHA” value was “rescued”.
